Values quoted from earlier work in patent US20090028935A1, “CARVEDILOL FORMS, COMPOSITIONS, AND METHODS OF PREPARATION THEREOF” (priority 2006, published 2009).
Entries after “also recorded” stand apart in the source; their conditions may differ. Where two headings read alike, the source gives them in different places.

Settings: background statement

COc1ccccc1OCCNCC(O)COc1cccc2[nH]c3ccccc3c12 (racemic) [Carvedilol, (±)-1-(carbazol-4-yloxy)-3-[[2-(o-methoxyphenoxy)ethyl]amino]-2-propanol]
aqueous solubility: low solubility in aqueous media, especially in media of increasingly basic pH; also recorded: limited aqueous solubility, especially in basic aqueous media
aqueous solubility (listed as carvedilol): pH dependent solubility with significantly lower solubility in the lower gastrointestinal tract
